{"source": "paper PMC10410440", "about": "“Preclinical PK investigation of a novel IDO1/TDO dual inhibitor—SHR9146 in mouse plasma and tissues by LC-MS/MS” (Frontiers in Oncology, 2023)", "test": "Tissue distribution of SHR9146 in mice after oral gavage of 40 mg/kg", "assay_type": "in vivo, ICR mice", "conditions": "female, 40 mg/kg oral gavage; for concentration at 1 h / concentration at 3 h / concentration at 6 h / concentration at 24 h: ICR, mouse, po", "experimental": "ICR mice with body weight 16–26 g were supplied by Shanghai Lingchang Biotechnology Co., Ltd. (animal breeding license number SCXK (Shanghai) 2013-0018) and housed at Shanghai Institute of Materia Medica, Chinese Academy of Sciences [animal use license number SYXK (Shanghai) 2015-0027]. The mice used in this study were fasted overnight for 12 h but had free access to water. Food was supplied 4 h post-dose. All experiments in this study were conducted in accordance with the Guidelines for the Care and Use of Laboratory Animals of Shanghai Institute of Materia Medica, Chinese Academy of Sciences.\nAnother set of 30 mice were randomly assigned into five groups with equal numbers, males and females, for tissue distribution study with oral gavage at a single dose of 40 mg/kg at predetermined different time points: pre-dose and post dose at 1, 3, 6, and 24 h, respectively. The whole brain, heart, liver, spleen, lung, kidney, bladder, pancreas, testis, ovary, uterus, stomach, small intestine, adrenal gland, skin, skeletal muscle, thyroid gland, and abdominal fat tissues as well as the whole blood and plasma samples were harvested. Tissue samples were washed with 0.9% sodium chloride solution to remove the residual blood or contents, blotted on a filter paper, and stored at −70°C prior to the analysis.\nProtein precipitation was selected for the pretreatment of both the plasma and the tissue homogenate prepared after thawing at room temperature, cut into pieces, and homogenized with a quintuple methanol–water mixture (1:1, v/v) for each tissue sample.\nBriefly as follows, an aliquot of 25-μL plasma or tissue homogenate was spiked with 100 μL of internal standard solution (1 μg/mL for plasma, 0.2 μg/mL for tissue homogenate) and 300 μL of methanol added and vortex mixed for 60 s. The mixture was then centrifuged at 14,000 rpm at 4°C for 5.0 min, and the supernatant was diluted with methanol–water (4:1, v/v) in a ratio of 1:9 for the plasma or 1:1 for the tissue homogenate, and 5 μL of the resulting solution was injected for the LC-MS/MS analysis.\nAfter oral administration of 40 mg/kg SHR9146, samples in different tissues at predetermined time points (pre-drug administration, post-drug administration at 1, 3, 6, and 24 h) were collected and prepared for the analysis. The drug concentrations of SHR9146 (μg/g or μg/mL) were determined for each mouse, and the mean and standard deviation were further obtained (Table S7).", "key": {"[1]": {"conditions": "24 h, individual mice, 40 mg/kg"}}, "note": "“And” between values parts separate entries of the source, which are not always exact repeats. Equal values may be shown once. Read-outs that look alike come from different tables or passages of the source."}
{"smiles": "OCCn1cc(-c2ccc(N3CCC([C@H]4c5c(F)cccc5-c5cncn54)CC3)cc2)cn1", "note": "[SHR9146]", "values": [{"measurement": "SHR9146 concentration in Bladder", "setting": "1 h, individual mice, 40 mg/kg", "result": "21.036 µg/g and 16.223 µg/g"}, {"measurement": "SHR9146 concentration in Kidney", "setting": "1 h, individual mice, 40 mg/kg", "result": "18.490 µg/g and 14.219 µg/g"}, {"measurement": "SHR9146 concentration in Liver", "setting": "1 h, individual mice, 40 mg/kg", "result": "26.622 µg/g and 23.393 µg/g"}, {"measurement": "SHR9146 concentration in Lung", "setting": "1 h, individual mice, 40 mg/kg", "result": "20.029 µg/g and 15.217 µg/g"}, {"measurement": "SHR9146 concentration in Pancreas", "setting": "1 h, individual mice, 40 mg/kg", "result": "22.508 µg/g and 15.532 µg/g"}, {"measurement": "SHR9146 concentration in Small intestine", "setting": "1 h, individual mice, 40 mg/kg", "result": "22.755 µg/g and 23.199 µg/g"}, {"measurement": "SHR9146 concentration in Bladder", "setting": "3 h, individual mice, 40 mg/kg", "result": "10.878 µg/g and 14.604 µg/g and 5.984 µg/g"}, {"measurement": "SHR9146 concentration in Kidney", "setting": "3 h, individual mice, 40 mg/kg", "result": "12.786 µg/g and 17.400 µg/g and 8.011 µg/g"}, {"measurement": "SHR9146 concentration in Liver", "setting": "3 h, individual mice, 40 mg/kg", "result": "20.374 µg/g and 27.066 µg/g and 11.815 µg/g"}, {"measurement": "SHR9146 concentration in Lung", "setting": "3 h, individual mice, 40 mg/kg", "result": "12.019 µg/g and 16.499 µg/g and 48.938 µg/g"}, {"measurement": "SHR9146 concentration in Pancreas", "setting": "3 h, individual mice, 40 mg/kg", "result": "13.466 µg/g and 17.374 µg/g and 6.520 µg/g"}, {"measurement": "SHR9146 concentration in Small intestine", "setting": "3 h, individual mice, 40 mg/kg", "result": "22.446 µg/g and 12.038 µg/g"}, {"measurement": "SHR9146 concentration in Adrenal gland", "setting": "6 h, individual mice, 40 mg/kg", "result": "4.009 µg/g and 0.427 µg/g and 1.219 µg/g"}, {"measurement": "SHR9146 concentration in Bladder", "setting": "6 h, individual mice, 40 mg/kg", "result": "1.685 μg/g and BLQ and 0.201 μg/g"}, {"measurement": "SHR9146 concentration in Brain", "setting": "6 h, individual mice, 40 mg/kg", "result": "BLQ"}, {"measurement": "SHR9146 concentration in Kidney", "setting": "6 h, individual mice, 40 mg/kg", "result": "3.007 µg/g and 0.546 µg/g and 0.744 µg/g"}, {"measurement": "SHR9146 concentration in Liver", "setting": "6 h, individual mice, 40 mg/kg", "result": "4.132 µg/g and 0.621 µg/g and 1.090 µg/g"}, {"measurement": "SHR9146 concentration in Lung", "setting": "6 h, individual mice, 40 mg/kg", "result": "2.446 µg/g and 0.717 µg/g and 0.984 µg/g"}, {"measurement": "SHR9146 concentration in Ovary", "setting": "6 h, individual mice, 40 mg/kg", "result": "BLQ"}, {"measurement": "SHR9146 concentration in Pancreas", "setting": "6 h, individual mice, 40 mg/kg", "result": "1.674 µg/g and 0.089 µg/g and 0.150 µg/g"}, {"measurement": "SHR9146 concentration in Skeletal muscle", "setting": "6 h, individual mice, 40 mg/kg", "result": "BLQ"}, {"measurement": "SHR9146 concentration in Small intestine", "setting": "6 h, individual mice, 40 mg/kg", "result": "1.815 µg/g and 0.395 µg/g and 0.288 µg/g"}, {"measurement": "SHR9146 concentration in Spleen", "setting": "6 h, individual mice, 40 mg/kg", "result": "BLQ"}, {"measurement": "SHR9146 concentration in Uterus", "setting": "6 h, individual mice, 40 mg/kg", "result": "BLQ"}, {"measurement": "SHR9146 concentration in Whole blood", "setting": "6 h, individual mice, 40 mg/kg", "result": "BLQ"}, {"measurement": "SHR9146 concentration in Abdominal fat", "setting": "24 h, individual mice", "result": "BLQ"}, {"measurement": "SHR9146 concentration in Bladder", "setting": "24 h, individual mice", "result": "BLQ"}, {"measurement": "SHR9146 concentration in Brain", "setting": "24 h, individual mice", "result": "BLQ"}, {"measurement": "SHR9146 concentration in Heart", "setting": "24 h, individual mice", "result": "BLQ"}, {"measurement": "SHR9146 concentration in Kidney", "setting": "24 h, individual mice", "result": "BLQ"}, {"measurement": "SHR9146 concentration in Ovary", "setting": "24 h, individual mice", "result": "BLQ"}, {"measurement": "SHR9146 concentration in Pancreas", "setting": "24 h, individual mice", "result": "BLQ"}, {"measurement": "SHR9146 concentration in Plasma", "setting": "24 h, individual mice", "result": "BLQ"}, {"measurement": "SHR9146 concentration in Skeletal muscle", "setting": "24 h, individual mice", "result": "BLQ"}, {"measurement": "SHR9146 concentration in Skin", "setting": "24 h, individual mice", "result": "BLQ"}, {"measurement": "SHR9146 concentration in Small intestine", "setting": "24 h, individual mice", "result": "BLQ"}, {"measurement": "SHR9146 concentration in Spleen", "setting": "24 h, individual mice", "result": "BLQ"}, {"measurement": "SHR9146 concentration in Uterus", "setting": "24 h, individual mice", "result": "BLQ"}, {"measurement": "SHR9146 concentration in Whole blood", "setting": "24 h, individual mice", "result": "BLQ"}, {"measurement": "SHR9146 concentration in thyroid gland", "setting": "24 h, individual mice", "result": "BLQ"}, {"measurement": "SHR9146 concentration in Adrenal gland", "setting": "[1]", "result": 0.185, "unit": "µg/g"}, {"measurement": "SHR9146 concentration in Liver", "setting": "[1]", "result": "BLQ and 0.058 μg/g"}, {"measurement": "SHR9146 concentration in Lung", "setting": "[1]", "result": "0.151 µg/g and 0.191 µg/g"}, {"measurement": "concentration at 1 h", "setting": "abdominal fat, 40 mg/kg, 1 h, Mean (n=3), read-out: SHR9146 concentration in Abdominal fat", "result": 13500, "unit": "ng/g"}, {"measurement": "concentration at 1 h", "setting": "abdominal fat, 40 mg/kg, 1 h, individual mice, read-out: SHR9146 concentration in Abdominal fat", "result": 11600, "unit": "ng/g"}, {"measurement": "concentration at 3 h", "setting": "abdominal fat, 40 mg/kg, 3 h, Mean (n=3), read-out: SHR9146 concentration in Abdominal fat", "result": 8930, "unit": "ng/g"}, {"measurement": "concentration at 6 h", "setting": "abdominal fat, 40 mg/kg, 6 h, Mean (n=3), read-out: SHR9146 concentration in Abdominal fat", "result": 416, "unit": "ng/g"}, {"measurement": "concentration at 1 h", "setting": "adrenal gland, 40 mg/kg, 1 h, Mean (n=3), read-out: SHR9146 concentration in Adrenal gland", "result": 36600, "unit": "ng/g"}, {"measurement": "concentration at 1 h", "setting": "adrenal gland, 40 mg/kg, 1 h, individual mice, read-out: SHR9146 concentration in Adrenal gland", "result": 31300, "unit": "ng/g"}, {"measurement": "concentration at 3 h", "setting": "adrenal gland, 40 mg/kg, 3 h, Mean (n=3), read-out: SHR9146 concentration in Adrenal gland", "result": 27800, "unit": "ng/g"}, {"measurement": "concentration at 6 h", "setting": "adrenal gland, 40 mg/kg, 6 h, Mean (n=3), read-out: SHR9146 concentration in Adrenal gland", "result": 1880, "unit": "ng/g"}, {"measurement": "concentration at 24 h", "setting": "adrenal gland, 40 mg/kg, 24 h, Mean (n=3), read-out: SHR9146 concentration in Adrenal gland", "result": 195, "unit": "ng/g"}, {"measurement": "concentration at 24 h", "setting": "adrenal gland, 40 mg/kg, 24 h, individual mice, read-out: SHR9146 concentration in Adrenal gland", "result": 214, "unit": "ng/g"}, {"measurement": "concentration at 1 h", "setting": "bladder, 40 mg/kg, 1 h, Mean (n=3), read-out: SHR9146 concentration in Bladder", "result": 16800, "unit": "ng/g"}, {"measurement": "concentration at 1 h", "setting": "bladder, 40 mg/kg, 1 h, individual mice, read-out: SHR9146 concentration in Bladder", "result": 13200, "unit": "ng/g"}, {"measurement": "concentration at 3 h", "setting": "bladder, 40 mg/kg, 3 h, Mean (n=3), read-out: SHR9146 concentration in Bladder", "result": 10500, "unit": "ng/g"}, {"measurement": "concentration at 6 h", "setting": "bladder, 40 mg/kg, 6 h, Mean (n=3), read-out: SHR9146 concentration in Bladder", "result": 629, "unit": "ng/g"}, {"measurement": "concentration at 1 h", "setting": "brain, 40 mg/kg, 1 h, Mean (n=3), read-out: SHR9146 concentration in Brain", "result": 2370, "unit": "ng/g"}, {"measurement": "concentration at 1 h", "setting": "brain, 40 mg/kg, 1 h, individual mice, read-out: SHR9146 concentration in Brain", "result": 2190, "unit": "ng/g"}, {"measurement": "concentration at 3 h", "setting": "brain, 40 mg/kg, 3 h, Mean (n=3), read-out: SHR9146 concentration in Brain", "result": 1560, "unit": "ng/g"}, {"measurement": "concentration at 6 h", "setting": "brain, 40 mg/kg, 6 h, Mean (n=3), read-out: SHR9146 concentration in Brain", "result": 87, "unit": "ng/g"}, {"measurement": "concentration at 6 h", "setting": "brain, 40 mg/kg, 6 h, individual mice, read-out: SHR9146 concentration in Brain", "result": 261, "unit": "ng/g"}, {"measurement": "concentration at 1 h", "setting": "heart, 40 mg/kg, 1 h, Mean (n=3), read-out: SHR9146 concentration in Heart", "result": 9540, "unit": "ng/g"}, {"measurement": "concentration at 1 h", "setting": "heart, 40 mg/kg, 1 h, individual mice, read-out: SHR9146 concentration in Heart", "result": 7410, "unit": "ng/g"}, {"measurement": "concentration at 3 h", "setting": "heart, 40 mg/kg, 3 h, Mean (n=3), read-out: SHR9146 concentration in Heart", "result": 7040, "unit": "ng/g"}, {"measurement": "concentration at 6 h", "setting": "heart, 40 mg/kg, 6 h, Mean (n=3), read-out: SHR9146 concentration in Heart", "result": 334, "unit": "ng/g"}, {"measurement": "concentration at 1 h", "setting": "kidney, 40 mg/kg, 1 h, Mean (n=3), read-out: SHR9146 concentration in Kidney", "result": 15300, "unit": "ng/g"}]}
